Results published in patent US9302999B2, “Substituted triazoles as herbicides” (E. I. DU PONT DE NEMOURS AND COMPANY, priority 2012, dated 2016).

Tests used:
Assay type in all cases: in vivo
[1] = system: barnyardgrass (Echinochloa crus-galli); assay: Test A pre-/postemergence: barnyardgrass; settings: for Barnyardgrass plant response rating: Postemergence; for Plant response rating, Barnyardgrass: Preemergence
How it was run: (§1)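 Seeds were sown in loam/sand blend and sprayed preemergence (directed soil spray) and, simultaneously, postemergence at 2–10 cm, one- to two-leaf stage, using compounds in non-phytotoxic solvent with surfactant. After ~10 days in greenhouse, injury was rated visually versus untreated controls, 0 (no effect) to 100 (complete control).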

[2] = system: crabgrass, large (large crabgrass, Digitaria sanguinalis); assay: Test A pre-/postemergence: crabgrass, large; settings: for Crabgrass, Large plant response rating: Postemergence; for Plant response rating, Crabgrass, Large: Preemergence
How it was run: as §1

[3] = system: foxtail, giant (giant foxtail, Setaria faberii); assay: Test A pre-/postemergence: foxtail, giant; settings: for Foxtail, Giant plant response rating: Postemergence; for Plant response rating, Foxtail, Giant: Preemergence
How it was run: as §1

[4] = system: morningglory (Ipomoea spp.); assay: Test A pre-/postemergence: morningglory; settings: for Morningglory plant response rating: Postemergence; for Plant response rating, Morningglory: Preemergence
How it was run: as §1

[5] = system: pigweed (Amaranthus retroflexus); assay: Test A pre-/postemergence: pigweed; settings: for Pigweed plant response rating: Postemergence; for Plant response rating, Pigweed: Preemergence
How it was run: as §1

[6] = system: velvetleaf (Abutilon theophrasti); assay: Test A pre-/postemergence: velvetleaf; settings: for Velvetleaf plant response rating: Postemergence; for Plant response rating, Velvetleaf: Preemergence
How it was run: as §1

[7] = system: wheat (Triticum aestivum); assay: Test A pre-/postemergence: wheat; settings: for Wheat plant response rating: Postemergence; for Plant response rating, Wheat: Preemergence
How it was run: as §1

corn (Zea mays) = assay: Test A pre-/postemergence: corn; settings: for Corn plant response rating: Postemergence; for Plant response rating, Corn: Preemergence
How it was run: as §1

rice (Oryza sativa) = assay: Test C flooded paddy test: rice; settings: scale 0 to 100 (0 no effect, 100 complete control)
How it was run: (§2)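 Greenhouse plants treated at the 2-leaf stage by dosing the flood water (3 cm depth, maintained) were compared with controls after 13 to 15 days and rated 0 to 100, where 100 means complete control; a dash marks no test result.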

[8] = system: sedge, umbrella (small-flower umbrella sedge, Cyperus difformis); assay: Test C flooded paddy test: sedge, umbrella; settings: scale 0 to 100 (0 no effect, 100 complete control)
How it was run: as §2

[9] = system: ducksalad (Heteranthera limosa); assay: Test C flooded paddy test: ducksalad; settings: scale 0 to 100 (0 no effect, 100 complete control)
How it was run: as §2

[10] = system: barnyardgrass (Echinochloa crus-galli); assay: Test C flooded paddy test: barnyardgrass; settings: scale 0 to 100 (0 no effect, 100 complete control)
How it was run: as §2

[11] = 125 g ai/ha, 0 to 100 scale, 0 is no effect, 100 is complete control
[12] = 500 g ai/ha, visual rating on 0 to 100 scale (0 no effect, 100 complete control), approximately ten days
[13] = 125 g ai/ha, 0 to 100 scale (0 no effect, 100 complete control)
[14] = 500 g ai/ha, 0 to 100 scale, 0 is no effect, 100 is complete control
[15] = 125 g ai/ha, 0 to 100 scale where 0 is no effect and 100 is complete control
[16] = Flood (flooded paddy test), 125 g ai/ha, visual rating after 13 to 15 days
[17] = Flood (flooded paddy test), 250 g ai/ha, visual rating after 13 to 15 days

SMILES: Cc1nn(-c2cccc(I)c2)nc1C(=O)c1cccc(C(F)(F)F)c1 [Compound 90]
- Barnyardgrass plant response rating [1, 11]: 0
- Barnyardgrass plant response rating [1, 12]: 10
- Plant response rating, Barnyardgrass [1, 13]: 0
- Plant response rating, Barnyardgrass [1, 14]: 0
- Crabgrass, Large plant response rating [2, 11]: 0
- Crabgrass, Large plant response rating [2, 12]: 10
- Plant response rating, Crabgrass, Large [2, 13]: 0
- Plant response rating, Crabgrass, Large [2, 14]: 0
- Foxtail, Giant plant response rating [3, 11]: 0
- Foxtail, Giant plant response rating [3, 12]: 10
- Plant response rating, Foxtail, Giant [3, 15]: 0
- Plant response rating, Foxtail, Giant [3, 14]: 0
- Morningglory plant response rating [4, 11]: 0
- Morningglory plant response rating [4, 12]: 10
- Plant response rating, Morningglory [4, 15]: 0
- Plant response rating, Morningglory [4, 14]: 0
- Pigweed plant response rating [5, 11]: 0
- Pigweed plant response rating [5, 12]: 30
- Plant response rating, Pigweed [5, 15]: 0
- Plant response rating, Pigweed [5, 14]: 0
- Velvetleaf plant response rating [6, 11]: 0
- Velvetleaf plant response rating [6, 12]: 0
- Plant response rating, Velvetleaf [6, 15]: 0
- Plant response rating, Velvetleaf [6, 14]: 0
- Wheat plant response rating [7, 11]: 0
- Wheat plant response rating [7, 12]: 0
- Plant response rating, Wheat [7, 15]: 0
- Plant response rating, Wheat [7, 14]: 0
- Corn plant response rating (corn (Zea mays); [11]): 0
- Corn plant response rating (corn (Zea mays); [12]): 10
- Plant response rating, Corn (corn (Zea mays); [13]): 0
- Plant response rating, Corn (corn (Zea mays); [14]): 0
- Plant response rating, Rice (rice (Oryza sativa); [16]): 0
- Plant response rating, Rice (rice (Oryza sativa); [17]): 0
- Plant response rating, Rice (rice (Oryza sativa); Flood, 31 g ai/ha): 0
- Plant response rating, Rice (rice (Oryza sativa); Flood, 62 g ai/ha): 0
- Plant response rating, Sedge, Umbrella [8, 16]: 0
- Plant response rating, Sedge, Umbrella [8, 17]: 0
- Plant response rating, Sedge, Umbrella ([8]; Flood, 31 g ai/ha): 0
- Plant response rating, Sedge, Umbrella ([8]; Flood, 62 g ai/ha): 0
- Plant response rating, Ducksalad [9, 16]: 0
- Plant response rating, Ducksalad [9, 17]: 0
- Plant response rating, Ducksalad ([9]; Flood, 31 g ai/ha): 0
- Plant response rating, Ducksalad ([9]; Flood, 62 g ai/ha): 0
- Plant response rating, Barnyardgrass [10, 16]: 0
- Plant response rating, Barnyardgrass [10, 17]: 0
- Plant response rating, Barnyardgrass ([10]; Flood, 31 g ai/ha): 0
- Plant response rating, Barnyardgrass ([10]; Flood, 62 g ai/ha): 0

SMILES: Cc1nn(-c2ccccc2I)nc1C(=O)c1cccc(C(F)(F)F)c1 [Compound 91]
- Barnyardgrass plant response rating [1, 11]: 0
- Barnyardgrass plant response rating [1, 12]: 10
- Plant response rating, Barnyardgrass [1, 13]: 0
- Plant response rating, Barnyardgrass [1, 14]: 0
- Crabgrass, Large plant response rating [2, 11]: 0
- Crabgrass, Large plant response rating [2, 12]: 10
- Plant response rating, Crabgrass, Large [2, 13]: 0
- Plant response rating, Crabgrass, Large [2, 14]: 0
- Foxtail, Giant plant response rating [3, 11]: 0
- Foxtail, Giant plant response rating [3, 12]: 10
- Plant response rating, Foxtail, Giant [3, 15]: 0
- Plant response rating, Foxtail, Giant [3, 14]: 0
- Morningglory plant response rating [4, 11]: 0
- Morningglory plant response rating [4, 12]: 0
- Plant response rating, Morningglory [4, 15]: 0
- Plant response rating, Morningglory [4, 14]: 0
- Pigweed plant response rating [5, 11]: 10
- Pigweed plant response rating [5, 12]: 30
- Plant response rating, Pigweed [5, 15]: 0
- Plant response rating, Pigweed [5, 14]: 0
- Velvetleaf plant response rating [6, 11]: 0
- Velvetleaf plant response rating [6, 12]: 10
- Plant response rating, Velvetleaf [6, 15]: 0
- Plant response rating, Velvetleaf [6, 14]: 0
- Wheat plant response rating [7, 11]: 0
- Wheat plant response rating [7, 12]: 0
- Plant response rating, Wheat [7, 15]: 0
- Plant response rating, Wheat [7, 14]: 0
- Corn plant response rating (corn (Zea mays); [11]): 10
- Corn plant response rating (corn (Zea mays); [12]): 10
- Plant response rating, Corn (corn (Zea mays); [13]): 0
- Plant response rating, Corn (corn (Zea mays); [14]): 0
- Plant response rating, Rice (rice (Oryza sativa); [16]): 0
- Plant response rating, Rice (rice (Oryza sativa); [17]): 0
- Plant response rating, Rice (rice (Oryza sativa); Flood, 31 g ai/ha): 0
- Plant response rating, Rice (rice (Oryza sativa); Flood, 62 g ai/ha): 0
- Plant response rating, Sedge, Umbrella [8, 16]: 0
- Plant response rating, Sedge, Umbrella [8, 17]: 0
- Plant response rating, Sedge, Umbrella ([8]; Flood, 31 g ai/ha): 0
- Plant response rating, Sedge, Umbrella ([8]; Flood, 62 g ai/ha): 0
- Plant response rating, Ducksalad [9, 16]: 0
- Plant response rating, Ducksalad [9, 17]: 0
- Plant response rating, Ducksalad ([9]; Flood, 31 g ai/ha): 0
- Plant response rating, Ducksalad ([9]; Flood, 62 g ai/ha): 0
- Plant response rating, Barnyardgrass [10, 16]: 0
- Plant response rating, Barnyardgrass [10, 17]: 0
- Plant response rating, Barnyardgrass ([10]; Flood, 31 g ai/ha): 0
- Plant response rating, Barnyardgrass ([10]; Flood, 62 g ai/ha): 0

SMILES: Cc1nn(-c2ccc(Br)cc2)nc1C(=O)c1cccc(C(F)(F)F)c1 [Compound 92]
- Barnyardgrass plant response rating [1, 11]: 0
- Barnyardgrass plant response rating [1, 12]: 10
- Plant response rating, Barnyardgrass [1, 13]: 0
- Plant response rating, Barnyardgrass [1, 14]: 0
- Crabgrass, Large plant response rating [2, 11]: 10
- Crabgrass, Large plant response rating [2, 12]: 30
- Plant response rating, Crabgrass, Large [2, 13]: 10
- Plant response rating, Crabgrass, Large [2, 14]: 40
- Foxtail, Giant plant response rating [3, 11]: 10
- Foxtail, Giant plant response rating [3, 12]: 20
- Plant response rating, Foxtail, Giant [3, 15]: 10
- Plant response rating, Foxtail, Giant [3, 14]: 20
- Morningglory plant response rating [4, 11]: 10
- Morningglory plant response rating [4, 12]: 30
- Plant response rating, Morningglory [4, 15]: 0
- Plant response rating, Morningglory [4, 14]: 0
- Pigweed plant response rating [5, 11]: 30
- Pigweed plant response rating [5, 12]: 90
- Plant response rating, Pigweed [5, 15]: 0
- Plant response rating, Pigweed [5, 14]: 10
- Velvetleaf plant response rating [6, 11]: 20
- Velvetleaf plant response rating [6, 12]: 20
- Plant response rating, Velvetleaf [6, 15]: 0
- Plant response rating, Velvetleaf [6, 14]: 0
- Wheat plant response rating [7, 11]: 0
- Wheat plant response rating [7, 12]: 10
- Plant response rating, Wheat [7, 15]: 0
- Plant response rating, Wheat [7, 14]: 0
- Corn plant response rating (corn (Zea mays); [11]): 10
- Corn plant response rating (corn (Zea mays); [12]): 10
- Plant response rating, Corn (corn (Zea mays); [13]): 0
- Plant response rating, Corn (corn (Zea mays); [14]): 0
- Plant response rating, Rice (rice (Oryza sativa); [16]): 0
- Plant response rating, Rice (rice (Oryza sativa); [17]): 0
- Plant response rating, Rice (rice (Oryza sativa); Flood, 31 g ai/ha): 0
- Plant response rating, Rice (rice (Oryza sativa); Flood, 62 g ai/ha): 0
- Plant response rating, Sedge, Umbrella [8, 16]: 0
- Plant response rating, Sedge, Umbrella [8, 17]: 0
- Plant response rating, Sedge, Umbrella ([8]; Flood, 31 g ai/ha): 0
- Plant response rating, Sedge, Umbrella ([8]; Flood, 62 g ai/ha): 0
- Plant response rating, Ducksalad [9, 16]: 0
- Plant response rating, Ducksalad [9, 17]: 0
- Plant response rating, Ducksalad ([9]; Flood, 31 g ai/ha): 0
- Plant response rating, Ducksalad ([9]; Flood, 62 g ai/ha): 0
- Plant response rating, Barnyardgrass [10, 16]: 0
- Plant response rating, Barnyardgrass [10, 17]: 0
- Plant response rating, Barnyardgrass ([10]; Flood, 31 g ai/ha): 0
- Plant response rating, Barnyardgrass ([10]; Flood, 62 g ai/ha): 0
